Assay [1] has as its system HLA-DR1 molecules. The assay is described as follows: release of biotin-labeled hMBP(90-102) from HLA-DR1 without unlabeled antigenic peptide (assay I). Format: binding, human. The conditions noted are these: Table 37, no unlabeled hMBP(90-102).
Assay [2] relates to HLA-DR1 molecules. The assay is described as follows: release of biotin-labeled hMBP(90-102) from HLA-DR1 in the presence of unlabeled hMBP (assay II). Format: binding, human. The conditions noted are these: Table 37, unlabeled hMBP(90-102) 250 μM.
The subject of assay [3] is HLA-DR1 molecules. The assay is described as follows: exchange of biotinylated hMBP(90-102) into antigenic peptide-loaded HLA-DR1 (assay III). The assay is classed as binding, human. The conditions noted are these: Table 38; HLA-DR1 preloaded with unlabeled hMBP(90-102) 50 μM; exchange with biotin-labeled hMBP(90-102) 50 μM, 37° C., 1 h; fraction of positive control o.d.; no enhancement = 0.08.

Assay [4] addresses T1, HLA-DR1 molecules (Homo sapiens, UniProt P01903+P01911, A100R/D57E/F55L/F60I/F76Y/I96L/L162R/M171V/P40L/Q125E/R42F/V115G/Y59C).
T1 construct: The HLA-DR alpha gene was truncated after Asn^192 to remove transmembranal and cytoplasmic regions from the protein product; A gene coding for the HLA-DR1 beta chain was truncated after position Lys^198, again to delete the transmembranal region; made in house; host or cells: insect cell line printed as HS / H5 (Invitrogen), co-infected with two baculoviruses; concentrated culture supernatant captured on 12CA5 antibody
The assay is described as follows: binding of biotin-labeled hMBP(90-102) to "empty" HLA-DR1 (assay IV). The conditions noted are these: Table 39; AE101 series compound 64 μM; biotin-labeled hMBP(90-102) 50 μM, 37° C., 1 h; no enhancement = 1.

No end group written: not given here.

For “cyclic LRMKLPK (bridge (positions not given here); also: cyclic, ring type not given here) [AE381, “head-to-tail” cyclization from the amino-terminus to the carboxyl-terminus of AE114]”, the “Relative Release, Without unlabeled hMBP(90-102), 1 μM” value in the assay with HLA-DR1 molecules [1] (AE101 series compound 1 μM) was determined as 0.64. For the same substance, the “Relative Release, Without unlabeled hMBP(90-102), 64 μM” value in the assay on HLA-DR1 molecules [1] (AE101 series compound 64 μM) came to 0.5. Also, the “Relative Release, With unlabeled hMBP(90-102), 1 μM” value in the assay on HLA-DR1 molecules [2] (AE101 series compound 1 μM) is 0.09. Also, the “Relative Release, With unlabeled hMBP(90-102), 64 μM” value in the assay with HLA-DR1 molecules [2] (AE101 series compound 64 μM) was −0.19. Besides, the “Relative Binding” value with HLA-DR1 molecules [3] is −0.12. For the same substance, the “Relative Enhancement” value with HLA-DR1 molecules [4] is on record as 1.84.

(Values after patent US6835382B2, “Ii peptide therapeutics to enhance antigen presentation” (University of Massachusetts, priority 1996, dated 2004).)
